Common to all, as to experiment: Greenhouse post-emergence herbicidal trial
The test system of one experiment is ECHCG. In kind it is in vivo, Echinochloa crus-galli. The conditions noted are these: MSO or COC 1.25% where in mixture, scale 0-100. From the text: (§1) The culture vessels used were plastic flowerpots filled, as substrate, with sandy loam comprising about 3% of humus. The seeds of the test plants were sown separated according to species.
(§2) For the post-emergence treatment, the test plants were initially cultivated to a height of 3-17 cm according to their habit and only then treated with the active compounds, which had been suspended or emulsified in water. To this end, the test plants were either sown directly and cultivated in the same vessels, or they were initially cultivated separately as seedlings and transplanted into the test vessels a few days prior to the treatment. According to the species, the plants were kept at temperatures of from 15° C. to 25° C. or from 20 to 35° C. The trial period extended over 3 weeks. During this time the plants were tended and their response to the individual treatments was evaluated.
(§3) The application in the greenhouse was carried out at a spray liquor application rate of 200 l/ha.

Another experiment deals with PANDI. In kind it is in vivo, Panicum dichotomiflorum. As to conditions: PANDI; a) 25 g/ha, MSO or COC 1.25% where in mixture, scale 0-100.
Source text: as §1, §2, §3

The next experiment concerns PANMI. In kind it is in vivo, Panicum milliaceum. As to conditions: PANMI; a) 12.5 g/ha, MSO or COC 1.25% where in mixture, scale 0-100.
Source text: as §1, §2, §3

For a further experiment, the system named is SORBI. In kind it is in vivo, Sorghum bicolor. As to conditions: SORBI; a) 25 g/ha, MSO or COC 1.25% where in mixture, scale 0-100.
Source text: as §1, §2, §3

For a further experiment, the system named is SETVI. It counts as in vivo, Setaria viridis. As to conditions: SETVI; a) 12.5 g/ha, MSO or COC 1.25% where in mixture, scale 0-100.
Source text: as §1, §2, §3

The subject of a further experiment is AMBEL. It counts as in vivo, Ambrosia elatior. The conditions noted are these: AMBEL; a) 3.125 g/ha, MSO or COC 1.25% where in mixture, scale 0-100.
Source text: as §1, §2, §3

A further experiment deals with HELAN. In kind it is in vivo, Helianthus annua. As to conditions: HELAN; a) 6.25 g/ha, MSO or COC 1.25% where in mixture, scale 0-100.
Source text: as §1, §2, §3

For another experiment, the system named is SOLNI. It counts as in vivo, Solanum nigrum. As to conditions: SOLNI; a) 3.125 g/ha, MSO or COC 1.25% where in mixture, scale 0-100.
Source text: as §1, §2, §3

Another experiment concerns XANST. In kind it is in vivo, Xanthium strumarium. As to conditions: XANST; a) 12.5 g/ha, MSO or COC 1.25% where in mixture, scale 0-100.
Source text: as §1, §2, §3

Drawing on US20080293572A1, “Herbicidal Mixtures” (BASF SE, priority 2005, published 2008), this text covers observed effect for one compound.

Structures are written as SMILES.

For the compound `Cc1c(C(=O)c2cnn(C)c2O)ccc(S(C)(=O)=O)c1C1=NOCC1` [a)], the observed effect with ECHCG (ECHCG; a) 12.5 g/ha) turned out to be 0; in the experiment with ECHCG (ECHCG; a) 25 g/ha) it was 0; in the experiment on PANDI it was 0; in the experiment on PANMI it was 75; in the experiment with SORBI, 10; in the experiment with SETVI, 60. The observed effect amounted to 60 in the experiment on AMBEL, 30 with HELAN, 30 in the experiment with SOLNI and 65 in the experiment with XANST.
